Reference: US20240158457A1, “INTERLEUKIN-18 RECEPTOR BINDING POLYPEPTIDES AND USES THEREOF” (Medikine, Inc., priority 2022, published 2024)
Where a SMILES comes first, the peptide text is derived from it. Bridges are numbered along the chain shown (N, C = ends).

Assays:
IL-18R = molecular target: T1, IL-18R (Homo sapiens, UniProt O95256+Q13478); assay: HEK-BLUE IL18R reporter assay for IL-18BP/IL-18 interaction (agonist activity with and without IL-18BP); format: cell-based; details: IL-18BP up to 100 nM; 30 nM dimer 10; FIG. 22B
T1 construct: host or cells: HEK293 (HEK-BLUE IL-18 reporter cell line)
T1 sequence (Q13478 19-541): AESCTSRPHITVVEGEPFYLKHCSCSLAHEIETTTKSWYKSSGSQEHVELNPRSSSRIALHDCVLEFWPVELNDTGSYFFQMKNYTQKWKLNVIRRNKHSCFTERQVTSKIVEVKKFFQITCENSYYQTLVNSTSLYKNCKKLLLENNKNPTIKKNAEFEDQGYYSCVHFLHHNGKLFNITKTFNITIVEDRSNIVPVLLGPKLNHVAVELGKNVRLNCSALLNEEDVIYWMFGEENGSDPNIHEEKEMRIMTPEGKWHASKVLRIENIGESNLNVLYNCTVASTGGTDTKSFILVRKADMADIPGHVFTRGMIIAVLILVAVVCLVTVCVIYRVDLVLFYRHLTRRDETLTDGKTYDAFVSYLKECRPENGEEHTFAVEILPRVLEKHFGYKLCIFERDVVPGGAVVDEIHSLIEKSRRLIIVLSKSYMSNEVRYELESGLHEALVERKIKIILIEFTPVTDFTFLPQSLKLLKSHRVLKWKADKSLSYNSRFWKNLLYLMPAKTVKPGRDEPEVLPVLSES
T1 sequence (O95256 20-599): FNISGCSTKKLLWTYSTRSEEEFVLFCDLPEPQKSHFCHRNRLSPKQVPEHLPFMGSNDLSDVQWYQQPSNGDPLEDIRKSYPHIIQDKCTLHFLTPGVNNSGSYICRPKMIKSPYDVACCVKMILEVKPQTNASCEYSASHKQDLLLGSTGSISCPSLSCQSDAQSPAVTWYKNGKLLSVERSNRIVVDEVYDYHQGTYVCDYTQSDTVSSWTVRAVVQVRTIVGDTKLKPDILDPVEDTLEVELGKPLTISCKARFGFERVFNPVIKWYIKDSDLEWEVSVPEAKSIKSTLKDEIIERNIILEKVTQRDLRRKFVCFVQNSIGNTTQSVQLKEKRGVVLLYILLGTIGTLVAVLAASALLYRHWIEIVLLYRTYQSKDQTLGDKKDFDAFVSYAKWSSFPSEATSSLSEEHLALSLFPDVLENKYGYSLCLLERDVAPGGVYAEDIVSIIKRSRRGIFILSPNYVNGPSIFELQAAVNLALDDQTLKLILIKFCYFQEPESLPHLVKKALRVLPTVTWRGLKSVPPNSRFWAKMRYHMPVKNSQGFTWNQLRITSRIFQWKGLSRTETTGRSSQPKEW
Excerpt: IL-18 is negatively regulated by a decoy receptor called IL-18 binding protein (IL-18BP), a secreted antagonist that binds IL-18 with extremely high affinity. HEK-BLUE™ IL-18 reporter cell line (InvivoGen #hkb-hmil 18, California, USA) was used to determine the impact of heterodimer peptides composed of IL-18Ra and IL-18Rb binding peptides on the IL-18BP/IL-18 interaction. The IL-18 Reporter assay, as described in detail in Example 2, was used to investigate this interaction with the following modifications.
A serial dilution (7-point, 10-fold) of IL-18BP Fc fusion (Acro #ILP-H5253) starting at 2 μM (20-fold final concentration) was prepared in test medium in a v-bottom polypropylene 96-well plate. Human recombinant IL-18 (R&D Systems #9124-IL-050/CF) and a representative peptide agonist were prepared at 30 pM and 600 nM respectively (both at 20-fold final concentration and at approximately their respective EC70s). […] Absorbance signal at 630 nm was then measured on a plate reader. Half maximal inhibition concentration (IC50) was calculated based on a variable slope and four parameter analysis using GraphPad Prism software. When no inhibition was measured the data points were connected without a curve fit. Absorbance readings were converted to percent total of signal span, for IL-18 and peptide agonist respectively, and graphed as NF-κB reporter activity (% max).

[1] = molecular target: T2, IL-18 Binding Protein (IL-18BP) (Homo sapiens, UniProt O95998); assay: Direct binding ELISA for IL-18BP; details: C-terminally biotinylated forms of peptides; at up to 100 nM IL-18BP
T2 construct: purchased ACROBiosystems (Acro); R&D Systems ILP-H5253; 119-BP
T2 sequence (O95998 31-194): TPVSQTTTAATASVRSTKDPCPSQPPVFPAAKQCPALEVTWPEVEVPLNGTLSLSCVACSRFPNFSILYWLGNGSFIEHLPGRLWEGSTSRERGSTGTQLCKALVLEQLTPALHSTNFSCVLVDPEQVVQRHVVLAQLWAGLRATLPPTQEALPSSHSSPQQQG
Method: Binding of synthetic monomer peptides to IL-18 Binding Protein (IL-18BP) was measured using a direct binding ELISA. Briefly, 96-well ELISA plates were coated with NeutrAvidin (NA) at 5 μg per well in PBS, washed, then blocked with PBS containing 1% BSA. Wells were washed and representative peptides, synthesized with a C-terminal biotin were diluted to 300 nM in assay buffer and added to the NA coated wells. Wells were washed and serial dilutions starting at 100 nM of IL-18R subunits, IL-18BP from either of two sources (Acro #ILP-H5253 and R&D #119-BP), and control IgG Fc fusions) were added to the wells and incubated for 1 hr at 4° C. Then plates were washed and goat anti-human IgG Fc-HRP (Southern Biotech #2048-05) detection antibody was added for 1 hr. Wells were developed with TMB for 5-15 min and the enzyme reaction was stopped with a H2SO4 solution.

CC[C@H](C)[C@H](NC(=O)[C@@H]1CSSC[C@H](NC(=O)[C@H](CCC(=O)O)NC(=O)[C@H](Cc2ccccc2)NC(=O)[C@H](Cc2ccccc2)NC(=O)CNC(=O)CNC(=O)[C@H](CO)NC(=O)CNC(=O)CCc2cn(CC[C@H](NC(=O)[C@H](CC(C)C)NC(=O)[C@@H]3CSSC[C@H](NC(=O)[C@H](CC(C)C)NC(=O)CNC(=O)CN)C(=O)N[C@@H](Cc4c[nH]c5ccccc45)C(=O)N[C@@H](Cc4ccc(O)cc4)C(=O)N[C@@H](Cc4ccccc4)C(=O)NCC(=O)NCC(=O)N[C@@H]([C@@H](C)O)C(=O)N[C@@H](C(C)C)C(=O)N[C@@H](CCCNC(=N)N)C(=O)NCC(=O)N4CCC[C@H]4C(=O)N3)C(N)=O)nn2)C(=O)N[C@@H](Cc2ccccc2)C(=O)N[C@@H](Cc2ccc(O)cc2)C(=O)N[C@@H](CO)C(=O)N2CCC[C@H]2C(=O)NCC(=O)N[C@@H](Cc2c[nH]cn2)C(=O)N[C@@H](CCC(=O)O)C(=O)N[C@@H](Cc2c[nH]c3ccccc23)C(=O)N1)C(=O)N1CCC[C@H]1C(=O)N[C@@H](CO)C(=O)NCC(=O)NCC(N)=O [Dimer 10]
inhibition of agonist activity by IL-18BP (IL-18R): does not inhibit

CC[C@H](C)[C@@H]1NC(=O)[C@H](CCC(=O)O)NC(=O)[C@H](CO)NC(=O)[C@H](CC(C)C)NC(=O)[C@H](Cc2c[nH]cn2)NC(=O)[C@H](CC(=O)O)NC(=O)[C@H](CO)NC(=O)[C@H](CC(C)C)NC(=O)[C@H](Cc2c[nH]c3ccccc23)NC(=O)[C@H](CC(N)=O)NC(=O)[C@@H]2CCCN2C(=O)[C@@H](NC(=O)CNC(=O)CN)CSSC[C@@H](C(=O)NCC(=O)NCC(=O)O)NC(=O)[C@H](Cc2c[nH]c3ccccc23)NC1=O [Dimer 5C09, GGCPNWLSDHLSEIWCGG] (H-GGCPNWLSDHLSEIWCGG-OH; disulfide 3-16; N-terminus and C-terminus assumed)
binding to IL-18BP [1]: did not exhibit binding

CC(C)C[C@H](NC(=O)CNC(=O)CN)C(=O)N[C@H]1CSSC[C@@H](C(=O)N[C@@H](CC(C)C)C(=O)NCC(=O)NCC(=O)O)NC(=O)[C@@H]2CCCN2C(=O)CNC(=O)[C@H](CCCNC(=N)N)NC(=O)[C@H](C(C)C)NC(=O)[C@H]([C@@H](C)O)NC(=O)CNC(=O)CNC(=O)[C@H](Cc2ccccc2)NC(=O)[C@H](Cc2ccc(O)cc2)NC(=O)[C@H](Cc2c[nH]c3ccccc23)NC1=O [Family 2 synthetic construct, GGLCWYFGGTVRGPCLGG] (H-GGLCWYFGGTVRGPCLGG-OH; disulfide 4-15; N-terminus and C-terminus assumed)
binding to IL-18BP [1]: did not exhibit binding

GGELCWRPFSFVDCEEGG [alpha Synthetic Fla Consensus Construct]
binding to IL-18BP [1]: did not exhibit binding
